Key:
[1] = biological target: T1, β-lactoglobulin (BLG) (Bos taurus, UniProt P02754); assay: Binding curve of sinigrin to β-lactoglobulin (ultrafiltration, SEC of free SIN); parameters: species or system bovine; details: for number of maximum binding sites (nmax): SIN to BLG, acidic conditions (pH 4.0), 25° C.
T1 construct: The composition in the major whey protein fraction was 89.22% BLG; purchased Davisco Biopure, lot JE 001-3-922
T1 sequence (P02754 17-178): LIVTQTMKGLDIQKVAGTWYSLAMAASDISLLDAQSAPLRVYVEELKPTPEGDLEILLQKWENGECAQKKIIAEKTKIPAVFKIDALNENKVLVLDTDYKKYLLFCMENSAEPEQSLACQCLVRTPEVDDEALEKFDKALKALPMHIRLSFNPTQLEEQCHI
Method: β-Lactoglobulin (BLG) powder was dispersed in Millipore® water by stirring at room temperature for 1 hour. The protein powder was purchased from Davisco (Biopure, lot JE 001-3-922). The protein content was 93.5 g/100 g of powder, as determined by Kjeldahl analysis (N×6.38). The composition in the major whey protein fraction was 89.22% BLG, 6.91% […], 3.87% bovine serum albumin, as determined by reversed phase HPLC(RP-HPLC); 0.2% fat, 1.5% ash and 4.9% moisture, as specified by the supplier. The mineral composition was as follows: 0.87% Na^+, <0.004% K^+, <0.04% Cl^−, 0.019% Ca^2+, 0.053% P, 0.002% Mg^2+, as determined by atomic absorption spectroscopy.
Concentration of the BLG in the protein solution was 1 mM (1.84% w/w). It was stored overnight at 4° C. to allow hydration. The next day, the protein dispersion was filtered using a Stericup filtration system (Millipore®) with 0.22 μm GP Express Plus membrane. The filtered dispersion (pH 7.2) was either used directly for sample preparation, or it was previously acidified to pH 4.0 using 1M HCl. The amount of 1M HCl added in the latter case was about 1% of the total volume.
The glucosinolate solution was prepared on the day of the experiment by dissolving sinigrin (SIN) in Millipore® water to obtain a concentration 20 or 40 mM (0.83. or 1.66% w/w). Sinigrin hydrate (allyl glucosinolate) 99%, was purchased from Sigma (lot 1291054). For the experiments under acidic conditions, SIN solution was acidified to pH 4.0. The amount of 1M HCl added in the latter case was about 1% of the total volume. […]
After incubation, 2×1.5 mL of mixtures were centrifuged using Centrisart® I centrifugal ultrafiltration units with cellulose triacetate ultrafilters having molecular weight cut-off of 10 kDa (Sartorious, Germany) in a Sorvall RC 3C PLUS centrifuge with a swing bucket rotor (Thermo, Switzerland), for 30 min at 2900×g. Ultrafiltrates were collected, diluted 10 times in Millipore® water, and then analyzed by size exclusion HPLC (SEC) to determine the amount of free (unbound) SIN in each sample. […]

[2] = Emulsifying properties: 10% oil-in-water emulsions, stability to creaming and flocculation; assay type: physicochemical; details: 10% oil-in-water emulsion, pH 4.0, without or with heat treatment
Method: Emulsifying properties of samples at pH 4.0 (prepared as described in example 1) were evaluated by preparing emulsions containing 10% (w/w) of “high oleic” sunflower oil (Oleifico SABO, Manno, Switzerland). Samples with SIN to BLG molar ratio 10 with or without heat treatment were diluted to 0.25 mM BLG and mixed with oil in a Pyrex® tube (D 25 mm, V 35 mL) to a final weight of 20 g. They were pre-homogenized using an Ultra Turrax® T25 equipped with a S25N-10G dispersing head (IKA-Werke, Staufen, Germany) rotating at 16,000 rpm for 1 minute. Homogenization of emulsions was completed using an ultrasonic processor (Hielscher UP400S, power 400 W, frequency 24 kHz) and a sonotrode (diameter 7 mm, approx. length 100 mm, titanium) at room temperature for 75 seconds and 75% amplitude of the ultrasound maximal power. This emulsification time was enough to disperse the oil in small droplets and to avoid excessive heating of the sample. […] Stability of emulsions to creaming and flocculation was followed over 26 days of storage at 4° C.

SMILES: C=CC/C(=N\OS(=O)(=O)[O-])S[C@@H]1O[C@H](CO)[C@@H](O)[C@H](O)[C@H]1O.O.[K+] [SIN, Sinigrin hydrate (allyl glucosinolate)]
- number of maximum binding sites (nmax) ([1]; with heat treatment (85° C., 15 min)): 8.71
- number of maximum binding sites (nmax) ([1]; without heat treatment): 15.4
- amount of bound SIN to BLG ([1]; pH 4.0 compared to 7.2): much higher at pH 4.0 compared to 7.2
- ability to produce a stable oil/water emulsion [2]: not able to produce a stable oil/water emulsion
